Measurements: paper PMC10368370, “Development of o-aminobenzamide salt derivatives for improving water solubility and anti-undifferentiated gastric cancer” (Frontiers in Pharmacology, 2023)
Like-named read-outs stand apart in the source and are kept apart here.

How the values were obtained:
HGC-27 xenograft = experiment: HGC-27 tumor xenograft model; assay type: in vivo, BALB/c nude mice; conditions: p.o., bid, 14 days, HGC-27 xenograft
Protocol: 4-week-old male BALB/c nude mice weighing 18g–22 g were injected with 100 μL HGC-27 cells (2 × 10^6 cells) to establish an undifferentiated gastric cancer model.
(A) Tumor volumes plotted as mean ± SEM. (B) Mice weight curve during treatment plotted as mean ± SD. (C,D) Tumor weight and size on the final day.

HGC-27 cells = experiment: MTT cytotoxicity / anti-proliferation assay; assay type: cell-based, human; conditions: Homo sapiens, HGC-27, 72 h, HGC-27, MTT, read-out: IC50, cancer cell viability
Protocol: Undifferentiated human gastric cancer cell line (HGC-27) was purchased from the China Center for Type Collection (CCTCC, China) and used with 10% Foetal Bovine Serum (FBS, Gemini, Bio-Product, CA, United States), 1% penicillin streptomycin (PS) and 89% 1,640 medium ([…]) for culture. All cells were incubated at 37°C in a constant temperature incubator containing 95% air and 5% CO2.
To evaluate the cytotoxicity of F8 and related organic salts on HGC-27 cells, MTT analysis was performed. HGC-27 cells were digested with trypsin, then cells were spread into 96-well plates at a density of 3,000 cells/well and incubated for 12–16 h. After 12 h, the medium in 96-well plates was replaced with compounds containing 1, 0.5, 0.25, 0.125, 0.062, 0.0312 μM for another 72 h. Three days later, 20 μL MTT solution was added and incubated at 37°C for 4 h. Then 150 μL DMSO solution was added to each well after the fluid was removed, and the absorbance was detected by microplate reader. The compound dissolved in DMSO was added to the cell medium so that the final concentration of DMSO was less than 0.4%.
Infinite proliferation is one of the most prominent features of cancer cells, therefore, we evaluated the anti-proliferation activity of compounds F8 and related organic salts against human gastric carcinoma HGC-27 via MTT assay.

HuH7 = experiment: MTT cytotoxicity / anti-proliferation assay; assay type: cell-based; conditions: 72 h, read-out: IC50, cancer cell viability
AGS = test system: AGS; design: method as in Feng et al., 2022; conditions: previous work, ref Feng et al., 2022; cited from earlier work
MDA-MB-231 = experiment: MTT cytotoxicity / anti-proliferation assay; assay type: cell-based; conditions: Homo sapiens, MDA-MB-231, 72 h, MDA-MB-231, MTT, read-out: IC50, cancer cell viability
HCT-116 = experiment: MTT cytotoxicity / anti-proliferation assay; assay type: cell-based; conditions: Homo sapiens, HCT-116, 72 h, HCT-116, MTT, read-out: IC50, cancer cell viability
MDA-MB-468 = experiment: MTT cytotoxicity / anti-proliferation assay; assay type: cell-based; conditions: Homo sapiens, MDA-MB-468, 72 h, MDA-MB-468, MTT, read-out: IC50, cancer cell viability
[1] = Solubility in aqueous solution (pure water, normal saline); assay type: physicochemical
HCC-1806 = experiment: MTT cytotoxicity / anti-proliferation assay; assay type: cell-based; conditions: Homo sapiens, HCC1806, 72 h, HCC-1806, MTT, read-out: IC50, cancer cell viability
Pharmacokinetic study = assay type: in vivo, SD rats; conditions: SD rats; for Cmax: read-out: Cmax
Protocol: 7–8-week Male SD rats weighing 180–220 g were allowed for this experiment. The rats were fasted 12 h except for water. The solution was administered to rats by intravenous injection of 10% ethanol +10% solutol as solvent and intragastric injection of 5% castor oil +5% solutol as solvent. The dose concentration was 8 mg/mL for intravenous injection and 10 mg/mL for gavage.
Twelve male SD rats were divided into 4 groups with 3 rats in each group. Group 1 was F8-intravenous injection group, the dose was 20 mg/kg; Group 2 was F8- intragastric administration group, the dose was 100 mg/kg; Group 3 was F8·2HCl-intragastric administration group, the dose was 100 mg/kg. Blank blood was collected before administration, and blood was collected at predetermined time points after administration:
Intravenous injection group: before administration, 2 min, 5 min, 15 min, 30 min, 1 h, 2 h, 4 h, 8 h, 12 h, 24 h. Intragastric administration group: Before administration, 5 min, 15 min, 30 min, 1 h, 2 h, 4 h, 6 h, 8 h, 12 h, 24 h. About 0.5 mL of blood was collected and placed in an EDTA-K2 tube at […]. The plasma was centrifuged and stored at −80°C. The samples were detected by liquid-mass spectrometry analysis system. The chromatographic column used was ODS-C18 (4.6 × 50 mm, 3 µm). The chromatographic conditions were as follows: Mobile phase A is aqueous phase, […] (including 0.1% formic acid); Mobile phase B is organic, 95% acetonitrile (containing 0.1% formic acid). Flow rate of 0.4 mL/min, column temperature: room temperature, according to the drug plasma concentration data, calculated pharmacokinetic parameters using DAS 2.0 software.
After oral administration, drugs need to go through four stages, namely, absorption, distribution, metabolism and excretion. However, the changes in solubility of drugs after salting only affect the absorption stage. Since absorption is accompanied by a dissolution process, the water solubility and dissolution rate of drugs are the main factors that determine their absorption, and then affect their oral bioavailability ([Elder et al., 2013]). Under the stimulation of cell activity and increased solubility, pharmacokinetic experiments were carried out to understand the drug exposure and provide a basis for further druggability of compound F8. In this study, compound F8 and F8·2HCl were administered in two different ways: tail vein injection (20 mg/kg) and gavage (100 mg/kg), and pharmacokinetic parameters were measured in Sprague-Dawley (SD) rats (Figures 3, 4).

MGC-803 = test system: MGC-803; design: method as in Feng et al., 2022; conditions: MGC-803, previous work; ref Feng et al., 2022; cited from earlier work
GES-1 = test system: GES-1; design: method as in Feng et al., 2022; conditions: GES-1 normal cells, previous work; ref Feng et al., 2022; cited from earlier work
SK-Hep-1 = experiment: MTT cytotoxicity / anti-proliferation assay; assay type: cell-based; conditions: SK-Hep-1, MTT, 72 h; read-out: IC50, cancer cell viability
HCC-1937 = experiment: MTT cytotoxicity / anti-proliferation assay; assay type: cell-based; conditions: Homo sapiens, HCC1937, 72 h, HCC-1937, MTT, read-out: IC50, cancer cell viability
MCF-7 = experiment: MTT cytotoxicity / anti-proliferation assay; assay type: cell-based; conditions: Homo sapiens, MCF7, 72 h, MCF-7, MTT, read-out: IC50, cancer cell viability
[2] = male, Sprague-Dawley, rat, plasma, iv, 20 mg/kg
[3] = male, Sprague-Dawley, rat, plasma, oral, 100 mg/kg, 100 mg/kg, route ip (methods: intragastric)

**Q.** For N#CC1(c2ccc(NC(=O)c3cccnc3NCc3ccncc3)cc2)CCCC1 [Apatinib, apatinib, reference compound], which “tumor growth inhibition (TGI)” value (HGC-27 xenograft; 37.5 mg/kg) is on record?
**A.** 50.0%

**Q.** For O=C(NCc1ccc(NC(=O)c2cc(F)ccc2N2CCCC2)cc1)OCc1cccnc1 [F8], which IC50 (HGC-27 cells) is on record?
**A.** 0.26 ± 0.03 µM

**Q.** And the IC50 (HuH7)?
**A.** 2.35 ± 0.29 µM

**Q.** And the IC50 (AGS)?
**A.** 23.3 µM

**Q.** And the IC50 (MDA-MB-231)?
**A.** 53.8 ± 0.59 µM

**Q.** And the “tumor growth inhibition (TGI)” value (HGC-27 xenograft; 75 mg/kg)?
**A.** 52.8%

**Q.** What about the IC50 (HCT-116) of the same molecule?
**A.** 4.89 ± 0.35 µM

**Q.** And the IC50 (MDA-MB-468)?
**A.** 1.45 ± 0.12 µM

**Q.** What about the “solubility in normal saline” value ([1]; normal saline, compared with pure water) of the same molecule?
**A.** not much different from pure water

**Q.** What about the “Solubility in aqueous solution” value ([1]; pure water) of the same molecule?
**A.** less than 1 mg/mL

**Q.** What about the IC50 (HCC-1806) of the same molecule?
**A.** 21.1 ± 0.74 µM

**Q.** What about the Tmax (Pharmacokinetic study; 100 mg/kg, route ip (methods: intragastric), 100 mg/kg) of the same molecule?
**A.** 0.19 h

**Q.** And the peak plasma concentration (Pharmacokinetic study; oral administration 100 mg/kg, 100 mg/kg)?
**A.** 0.4 µg/mL

**Q.** And the AUC(0-inf) (Pharmacokinetic study; [2])?
**A.** 6990 ng·h/mL

**Q.** What about the half-life (Pharmacokinetic study; [2]) of the same molecule?
**A.** 3.09 h

**Q.** What about the Cmax (Pharmacokinetic study; male, Sprague-Dawley, rat, plasma, iv, 20 mg/kg, 20 mg/kg, iv) of the same molecule?
**A.** 12100 ng/mL

**Q.** What about the Tmax (Pharmacokinetic study; male, Sprague-Dawley, rat, plasma, iv, 20 mg/kg, 20 mg/kg, iv, read-out: Tmax) of the same molecule?
**A.** 0.03 h

**Q.** What about the AUC(0-inf) (Pharmacokinetic study; [3]) of the same molecule?
**A.** 1130 ng·h/mL

**Q.** And the half-life (Pharmacokinetic study; [3])?
**A.** 2.66 h

**Q.** What about the Cmax (Pharmacokinetic study; [3]) of the same molecule?
**A.** 400 ng/mL

**Q.** What about the bioavailability (Pharmacokinetic study; male, Sprague-Dawley, rat, plasma, oral, 100 mg/kg, oral 100 mg/kg vs iv 20 mg/kg, read-out: bioavailability) of the same molecule?
**A.** 3.23%

**Q.** And the AUC(0-t) (Pharmacokinetic study; male, Sprague-Dawley, rat, plasma, po, 100 mg/kg, area under the concentration-time curve (AUC0-t), oral administration 100 mg/kg, heading: area under the concentration-time curve)?
**A.** ~1130 ng·h/mL

**Q.** And the IC50 (MGC-803)?
**A.** 10.7 µM

**Q.** What about the IC50 (GES-1) of the same molecule?
**A.** > 100 µM

**Q.** And the IC50 (SK-Hep-1)?
**A.** 1.65 ± 0.15 µM

**Q.** What about the IC50 (HCC-1937) of the same molecule?
**A.** 47.05 ± 0.07 µM

**Q.** And the IC50 (MCF-7)?
**A.** 43.5 ± 0.36 µM
